Where “and” joins values, the source holds several entries; their conditions need not be identical. Identical values can stand only once.
What was measured:
Assay in all cases: Kinase inhibition screen, cell-free 33P ATP assay at 10 μM
Assay type in all cases: biochemical
[1] = target: 140 purified human kinases (Homo sapiens, UniProt Q9NQU5)
How it was run: (§1)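 Radiometric ^33P ATP cell-free format with purified enzymes; both complexes run at 10 μM in duplicate, results plotted on a kinome map via HGNC symbols.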

[2] = target: T1, 140 purified human kinases (Homo sapiens, UniProt O00418); conditions: EF2K
T1 sequence (O00418 1-725): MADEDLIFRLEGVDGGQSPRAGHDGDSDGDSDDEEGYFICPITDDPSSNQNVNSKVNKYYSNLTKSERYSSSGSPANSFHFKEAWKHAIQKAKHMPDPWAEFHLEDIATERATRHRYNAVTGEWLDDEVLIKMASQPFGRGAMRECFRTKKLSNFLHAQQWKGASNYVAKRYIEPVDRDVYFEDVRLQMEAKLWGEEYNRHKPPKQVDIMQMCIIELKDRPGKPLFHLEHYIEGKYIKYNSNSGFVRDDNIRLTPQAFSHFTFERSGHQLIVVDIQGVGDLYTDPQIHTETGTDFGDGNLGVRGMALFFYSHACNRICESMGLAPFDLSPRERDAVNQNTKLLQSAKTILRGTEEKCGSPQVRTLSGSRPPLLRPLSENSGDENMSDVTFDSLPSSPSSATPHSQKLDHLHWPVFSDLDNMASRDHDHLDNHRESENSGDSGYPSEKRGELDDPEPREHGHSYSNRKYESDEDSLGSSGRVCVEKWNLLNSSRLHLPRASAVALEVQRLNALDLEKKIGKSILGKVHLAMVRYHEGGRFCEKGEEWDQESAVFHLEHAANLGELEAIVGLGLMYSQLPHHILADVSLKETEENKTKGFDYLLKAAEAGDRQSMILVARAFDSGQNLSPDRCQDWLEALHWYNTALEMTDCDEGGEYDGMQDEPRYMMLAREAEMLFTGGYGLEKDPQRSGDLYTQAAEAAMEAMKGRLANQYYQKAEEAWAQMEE
How it was run: as §1

[3] = target: T2, 140 purified human kinases (Homo sapiens, UniProt Q8IVH8)
T2 sequence (Q8IVH8 1-894): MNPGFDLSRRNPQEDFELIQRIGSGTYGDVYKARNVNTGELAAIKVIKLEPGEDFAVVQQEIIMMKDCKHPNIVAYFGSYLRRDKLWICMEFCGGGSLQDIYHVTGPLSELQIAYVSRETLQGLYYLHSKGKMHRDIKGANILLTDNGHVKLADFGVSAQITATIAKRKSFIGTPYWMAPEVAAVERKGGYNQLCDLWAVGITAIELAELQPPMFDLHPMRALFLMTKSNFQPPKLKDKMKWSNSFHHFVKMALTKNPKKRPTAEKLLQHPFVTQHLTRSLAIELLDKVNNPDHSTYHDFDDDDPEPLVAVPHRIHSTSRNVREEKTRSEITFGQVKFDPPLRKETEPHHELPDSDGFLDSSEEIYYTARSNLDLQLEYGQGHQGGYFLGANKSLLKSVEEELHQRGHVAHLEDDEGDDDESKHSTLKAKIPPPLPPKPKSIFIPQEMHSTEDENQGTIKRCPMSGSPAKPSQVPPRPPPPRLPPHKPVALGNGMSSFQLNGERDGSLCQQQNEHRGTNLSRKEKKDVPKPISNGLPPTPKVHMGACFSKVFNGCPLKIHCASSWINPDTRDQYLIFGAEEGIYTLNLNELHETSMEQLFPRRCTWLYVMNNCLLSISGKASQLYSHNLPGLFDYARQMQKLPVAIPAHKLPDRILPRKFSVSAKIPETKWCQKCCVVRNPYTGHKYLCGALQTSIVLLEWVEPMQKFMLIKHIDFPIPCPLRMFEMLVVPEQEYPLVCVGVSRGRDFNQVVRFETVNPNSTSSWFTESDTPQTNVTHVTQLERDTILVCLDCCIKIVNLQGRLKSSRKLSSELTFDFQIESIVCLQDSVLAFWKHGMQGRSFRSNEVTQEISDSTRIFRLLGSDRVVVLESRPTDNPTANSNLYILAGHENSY
How it was run: as §1

[4] = target: T3, 140 purified human kinases (Homo sapiens, UniProt Q8TDC3)
T3 sequence (Q8TDC3 1-778): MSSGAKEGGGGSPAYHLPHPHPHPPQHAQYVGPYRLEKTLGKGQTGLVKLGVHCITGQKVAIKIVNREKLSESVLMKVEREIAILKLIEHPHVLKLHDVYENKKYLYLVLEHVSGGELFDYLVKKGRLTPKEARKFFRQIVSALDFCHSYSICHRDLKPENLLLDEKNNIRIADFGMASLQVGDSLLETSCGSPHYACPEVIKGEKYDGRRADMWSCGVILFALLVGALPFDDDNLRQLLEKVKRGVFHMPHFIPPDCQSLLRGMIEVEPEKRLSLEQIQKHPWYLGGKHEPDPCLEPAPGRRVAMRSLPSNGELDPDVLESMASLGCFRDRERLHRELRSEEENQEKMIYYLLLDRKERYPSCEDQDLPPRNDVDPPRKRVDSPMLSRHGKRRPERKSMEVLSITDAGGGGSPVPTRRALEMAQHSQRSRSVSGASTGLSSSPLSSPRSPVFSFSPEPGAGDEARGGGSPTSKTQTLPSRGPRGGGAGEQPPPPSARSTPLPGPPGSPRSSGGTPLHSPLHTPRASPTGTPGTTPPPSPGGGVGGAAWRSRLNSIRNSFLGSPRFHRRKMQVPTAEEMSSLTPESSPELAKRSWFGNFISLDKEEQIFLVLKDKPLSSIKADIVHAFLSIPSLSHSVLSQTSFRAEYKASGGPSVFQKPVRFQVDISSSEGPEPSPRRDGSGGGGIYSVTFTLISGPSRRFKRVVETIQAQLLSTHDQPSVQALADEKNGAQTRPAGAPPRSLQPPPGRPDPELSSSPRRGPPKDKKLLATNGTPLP
How it was run: as §1

Chain of 140 purified human kinases (Homo sapiens, UniProt Q9NQU5) (Q9NQU5 whole entry): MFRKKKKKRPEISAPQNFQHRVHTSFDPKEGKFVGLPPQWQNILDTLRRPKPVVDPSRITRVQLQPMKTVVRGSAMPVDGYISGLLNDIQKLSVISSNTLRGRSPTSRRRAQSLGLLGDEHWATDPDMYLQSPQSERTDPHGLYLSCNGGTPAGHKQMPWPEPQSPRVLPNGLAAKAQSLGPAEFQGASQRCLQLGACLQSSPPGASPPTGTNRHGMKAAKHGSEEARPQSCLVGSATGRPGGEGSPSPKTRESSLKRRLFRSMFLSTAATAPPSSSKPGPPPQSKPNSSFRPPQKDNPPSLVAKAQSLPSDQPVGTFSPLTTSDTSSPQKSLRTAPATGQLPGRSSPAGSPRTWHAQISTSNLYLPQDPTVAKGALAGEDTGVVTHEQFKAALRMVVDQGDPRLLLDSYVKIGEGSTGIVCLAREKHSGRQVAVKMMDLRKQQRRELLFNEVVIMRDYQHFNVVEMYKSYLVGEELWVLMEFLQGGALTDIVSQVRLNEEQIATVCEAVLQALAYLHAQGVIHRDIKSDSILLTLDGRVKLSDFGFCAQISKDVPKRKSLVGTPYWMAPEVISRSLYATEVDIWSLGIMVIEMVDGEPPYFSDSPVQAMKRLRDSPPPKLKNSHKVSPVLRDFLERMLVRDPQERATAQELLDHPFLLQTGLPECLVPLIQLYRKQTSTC

## [Cu+2].[Cu+2].[Cu+2].c1ccc(-c2csc(NCCN(CCNc3nc(-c4ccccn4)cs3)CCNc3nc(-c4ccccn4)cs3)n2)nc1.c1ccc(-c2csc(NCCN(CCNc3nc(-c4ccccn4)cs3)CCNc3nc(-c4ccccn4)cs3)n2)nc1 [[L2Cu3]6+]
[1]; PAK6
  % Inhibition Run 1: 49.1%
  % Inhibition Run 2: 47.9%
  % Inhibition, Mean: 49%
  mean % activity: 52%
[1]; PAK6, Run 1
  % activity: 50.9%
[1]; PAK6, Run 2
  % activity: 52.1%
[2]
  % Inhibition Run 1: 60.6%
  % Inhibition Run 2: 65.9%
  % Inhibition, Mean: 63%
  mean % activity: 37%
[2]; Run 1
  % activity: 39.4%
[2]; Run 2
  % activity: 34.1%
[3]; MAP4K3
  % Inhibition Run 1: 72.4%
  % Inhibition Run 2: 85.5%
  % Inhibition, Mean: 79%
  mean % activity: 21%
[3]; MAP4K3, Run 1
  % activity: 27.6%
[3]; MAP4K3, Run 2
  % activity: 14.5%
[4]; BRSK1
  % Inhibition Run 1: 95.4%
  % Inhibition Run 2: 93.2%
  % Inhibition, Mean: 94%
  mean % activity: 5.7%
[4]; BRSK1, Run 1
  % activity: 4.6%
[4]; BRSK1, Run 2
  % activity: 6.8%
[4]; BRSK1, 10 µM
  % Activity inhibition Mean: 94.3%
  % Activity inhibition Run 1: 95.4%
  % Activity inhibition Run 2: 93.2%
  % Activity remaining Run 1: 4.60%
  % Activity remaining Run 2: 6.80%

## CC(=O)[O-].CC(=O)[O-].CC(=O)[O-].CC(=O)[O-].CC(=O)[O-].CC(=O)[O-].[Zn+2].[Zn+2].[Zn+2].c1ccc(-c2csc(NCCN(CCNc3nc(-c4ccccn4)cs3)CCNc3nc(-c4ccccn4)cs3)n2)nc1.c1ccc(-c2csc(NCCN(CCNc3nc(-c4ccccn4)cs3)CCNc3nc(-c4ccccn4)cs3)n2)nc1 [[L2Zn3]6+]
[1]; PAK6
  % Inhibition, Mean: 27%
  mean % activity: 73%
[1]; PAK6, duplicate runs
  % activity: 63% and 83%
[2]
  % Activation, Mean value: 0.8%
  % Inhibition, Mean: -0.8%
  % Inhibition, Run 1 / Run 2: 2% and -3.6%
  mean % activity: 101%
[2]; duplicate runs
  % activity: 98% and 104%
[3]; MAP4K3
  % Inhibition, Mean: 45%
  % Inhibition, Run 1 / Run 2: 48% and 43%
  mean % activity: 55%
[3]; MAP4K3, duplicate runs
  % activity: 52% and 58%
[4]; BRSK1
  % Inhibition, Mean: 32%
  % Inhibition, Run 1 / Run 2: 39% and 26%
  mean % activity: 68%
[4]; BRSK1, duplicate runs
  % activity: 62% and 74%
